# Source: patent US20130165419A1, “COMBINATION ANTI-INFLAMMATORY OPHTHALMIC COMPOSITIONS” (INSITE VISION INCORPORATED, priority 2011, published 2013)
# Assay: Release in the rabbit eye, measured by drug contained in the aqueous humor
# Type: in vivo
# Settings: released from the gel of the ophthalmically acceptable vehicle
# Protocol: The viscous gels that result upon administration of the aqueous suspensions of this invention to the eye have residence times in the eye ranging from about 2 to about 12 hours, e.g., from about 3 to about 6 hours. The active ingredients contained in these ophthalmically acceptable vehicles are released from the gels at rates that depend on such factors as the active ingredient itself and its physical form, the extent of drug loading and the pH of the system, as well as on any drug delivery adjuvants, such as ion exchange resins compatible with the ocular surface, which can also be present.
compound,measurement,value
CC(=O)[C@@]1(O)CC[C@H]2[C@@H]3C[C@H](C)C4=CC(=O)C=C[C@]4(C)[C@@]3(F)[C@@H](O)C[C@@]21C [fluorometholone],"release rates in the rabbit eye, as measured by fluorometholone contained in the aqueous humor",in excess of four hours
